Data reported in patent EP0567026B1, “4,1-Benzoxazepin derivatives as squalene synthase inhibitors and their use in the treatment of hypercholesteremia and as fungicides” (TAKEDA CHEMICAL INDUSTRIES, LTD., priority 1992, dated 1993).

Test system: hepatic cholesterogenesis
Assay: In vivo cholesterogenesis in the liver ([14C]acetate incorporation into digitonin-precipitable hepatic sterols)
Details: male Sprague-Dawley rats on 5%-cholestylamine diet for 4 days; dose of 30 mg/kg as suspension in 0.5%-methylcellulose; [14C]acetate i.v. 1 hour after administration, livers removed one hour later; compared to the control group
Method: Six-week-old, male Sprague-Dawley rats were given 5%-cholestylamine as a dietary admixture for 4 days. They were administered compound at a dose of 30 mg/kg as a suspension of 0.5%-methylcellulose solution and were intravenously given 2 uCi of [^14C]acetate 1 hour after the administration. One hour later, rats were sacrificed and livers were removed. Hepatic sterols were extracted with petroleum ether after saponification, and the radioactivity of digitonin-precipitable fraction was measured. Example 1-(4) inhibited the hepatic cholesterogenesis by 38% compared to the control group given only […] solution.

CCOC(=O)CC1OC(c2ccccc2Cl)c2cc(Cl)ccc2N(CC(C)(C)C)C1=O (stereo not shown) [Example 1-(4)]
inhibited the hepatic cholesterogenesis: 38%
